Values joined by “and” are separate entries in the source; they are usually repeats but may differ in a detail not shown here. Equal entries are not always repeated.
Experiments:
albumin (mouse serum) = molecular target: T1, albumin (mouse serum) (Mus musculus, UniProt P07724); test: SEC-ICP-MS albumin binding in mouse serum; format: in vitro ADME; details: for Pt195 in HMWF (albumin-bound) / Pt195 in LMWF: 100 µM, 37 °C
T1 construct: The serum was separated by centrifugation (two times 10 min at 900 g) after 10–20 min clotting at room temperature; from tissue; host or cells: serum of Balb/c mice
Description: Blood of Bab/c mice was collected under anesthesia via heart puncture. […] Human serum was purchased from Sigma-Aldrich. In order to guarantee a stable pH, all sera were buffered with 150 mM phosphate to pH 7.4 by dissolving the necessary amounts of Na2HPO4 and NaH2PO4 directly in the serum. […] The samples were then incubated in the autosampler at 37 °C and analyzed every hour for 4 or 5 h and after 24 h. Between each sample a pure water blank was measured. For measurements with 10 min intervals the same procedure was followed, but the blank measurements were omitted. For SEC-ICP-MS measurements an Agilent 1260 Infinity system coupled to an Agilent 7800 ICP-HRMS equipped with a dynamic reaction cell was used. Oxygen (purity 5.5, Messer Austria GmbH, Gumpoldskirchen, Austria) was used as reaction gas.

CT26 colon cancer cells = details: i.v.
Description: CT26 cells (5 × 10^5 in serum-free medium) were injected s.c. into the right flank of male Balb/c mice. […] 0.9% NaCl served as solvent control. Animals were controlled for distress development every day and tumor size was assessed regularly by caliper measurement. Tumor volume was calculated using the formula: (length × width^2)/2. In the overall survival experiments, mice were sacrificed by cervical dislocation in the case of a tumor length >20 mm, tumor ulceration or body weight loss >20%.

[1] = pH 7.4, 10 min intervals, 0 min
[2] = pH 7.4, 10 min intervals, 10 min
[3] = pH 7.4, 10 min intervals, 20 min
[4] = pH 7.4, 10 min intervals, 30 min
[5] = pH 7.4, 10 min intervals, 40 min
[6] = pH 7.4, 10 min intervals, 50 min
[7] = pH 7.4, 10 min intervals, 60 min
[8] = equimolar to 9 mg/kg oxaliplatin, days 4, 8, 12

T1 sequence (P07724 25-608): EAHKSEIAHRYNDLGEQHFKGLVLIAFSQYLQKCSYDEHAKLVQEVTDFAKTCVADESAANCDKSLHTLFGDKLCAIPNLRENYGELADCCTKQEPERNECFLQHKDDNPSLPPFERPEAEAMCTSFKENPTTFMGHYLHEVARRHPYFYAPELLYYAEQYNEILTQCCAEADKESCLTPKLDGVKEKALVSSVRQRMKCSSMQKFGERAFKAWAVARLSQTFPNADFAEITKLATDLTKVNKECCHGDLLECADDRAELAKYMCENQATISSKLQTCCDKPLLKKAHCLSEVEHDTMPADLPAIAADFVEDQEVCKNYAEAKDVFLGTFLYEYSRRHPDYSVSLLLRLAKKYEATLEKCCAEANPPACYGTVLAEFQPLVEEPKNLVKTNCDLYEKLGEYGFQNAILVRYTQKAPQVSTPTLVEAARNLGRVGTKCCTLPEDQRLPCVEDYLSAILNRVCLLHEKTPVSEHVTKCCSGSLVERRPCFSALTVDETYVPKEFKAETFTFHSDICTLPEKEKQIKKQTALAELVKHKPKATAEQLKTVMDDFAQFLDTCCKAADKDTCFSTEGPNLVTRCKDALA

Row | Compound | Pt195 in HMWF (albumin-bound) (albumin (mouse serum); [1]) [%] | Pt195 in LMWF (albumin (mouse serum); [1]) [%] | Pt195 in HMWF (albumin-bound) (albumin (mouse serum); [2]) | Pt195 in LMWF (albumin (mouse serum); [2]) [%] | Pt195 in HMWF (albumin-bound) (albumin (mouse serum); [3]) [%] | Pt195 in LMWF (albumin (mouse serum); [3]) [%] | Pt195 in HMWF (albumin-bound) (albumin (mouse serum); [4]) [%] | Pt195 in LMWF (albumin (mouse serum); [4]) [%] | Pt195 in HMWF (albumin-bound) (albumin (mouse serum); [5]) [%] | Pt195 in LMWF (albumin (mouse serum); [5]) [%] | Pt195 in HMWF (albumin-bound) (albumin (mouse serum); [6]) [%] | Pt195 in LMWF (albumin (mouse serum); [6]) [%] | Pt195 in HMWF (albumin-bound) (albumin (mouse serum); [7]) [%] | Pt195 in LMWF (albumin (mouse serum); [7]) [%] | Pt195 in LMWF (albumin (mouse serum); pH 7.4, 1 h intervals, 0 h) [%] | Pt195 in HMWF (albumin-bound) (albumin (mouse serum); pH 7.4, 1 h intervals, 1 h) | Pt195 in LMWF (albumin (mouse serum); pH 7.4, 1 h intervals, 1 h) [%] | Pt195 in HMWF (albumin-bound) (albumin (mouse serum); pH 7.4, 1 h intervals, 2 h) | Pt195 in LMWF (albumin (mouse serum); pH 7.4, 1 h intervals, 2 h) [%] | Pt195 in HMWF (albumin-bound) (albumin (mouse serum); pH 7.4, 1 h intervals, 3 h) [%] | further results
1 | CC(=O)[O][Pt-2]12([O]C(=O)NCCOCCOCCOCCOC(=O)C3=CCCCC3S(=O)(=O)Nc3ccc(F)cc3F)([NH2+]C3CCCCC3[NH2+]1)[O]C(=O)C(=O)[O]2 (mixture of isomers) [DFSA-Ox-OAc, (OC-6–34)-Acetato[(1R,2R)-1,2-cyclohexane-1,2-diamino][(1-(6-(N-(2,4-difluorophenyl)-sulfamoyl)-cyclohex-1-en-1-yl)-1-oxo-2,5,8,11-tetraoxatridecan-13-yl)-carbamato]-oxalato platinum(IV)] | 2 | 98 | 18% | 82 | 32 | 68 | 43 | 57 | 52 | 48 | 58 | 42 | 63 | 37 | 99 | 65% | 35 | 78% and ~80% | 22 | 82 | Pt195 in LMWF (albumin (mouse serum); pH 7.4, 1 h intervals, 3 h): 18%; Pt195 in HMWF (albumin-bound) (albumin (mouse serum); pH 7.4, 1 h intervals, 4 h): 82%; Pt195 in LMWF (albumin (mouse serum); pH 7.4, 1 h intervals, 4 h): 18%; Pt195 in HMWF (albumin-bound) (albumin (mouse serum); pH 7.4, 1 h intervals, 24 h): 70%; Pt195 in LMWF (albumin (mouse serum); pH 7.4, 1 h intervals, 24 h): 30%; Maximum albumin binding (albumin (mouse serum); reached after several hours): 82%
2 | CC(=O)[O][Pt-2]12([O]C(=O)NCCOCCOCCOCCOCCN3C(=O)C=CC3=O)([NH2+][C@@H]3CCCC[C@H]3[NH2+]1)[O]C(=O)C(=O)[O]2 [Mal-Ox-OAc, (OC-6–34)-Acetato[(1R,2R)-1,2-cyclohexane-1,2-diamino][ (14-(2,5-dioxo-2,5-dihydro-1H-pyrrol-1-yl)-3,6,9,12-tetraoxatetradecyl)-carbamato]-oxalato platinum(IV)] | 36 | 64 | 58% and ~60% | 42 | 68 | 32 | 74 | 26 | 78 | 22 | 79 | 21 | 80 | 20 | 66 | 75% | 25 | 74% | 26 | 74 | Impact on tumor growth (CT26 colon cancer cells; [8]): distinctly reduced tumor growth; Increase of overall survival compared to solvent control (CT26 colon cancer cells; [8]): ~50%; Prolonged overall survival compared to solvent-treated animals (CT26 colon cancer cells; [8]): about 10 days; Pt195 in LMWF (albumin (mouse serum); pH 7.4, 1 h intervals, 3 h): 26%; Pt195 in HMWF (albumin-bound) (albumin (mouse serum); pH 7.4, 1 h intervals, 4 h): 74%; Pt195 in LMWF (albumin (mouse serum); pH 7.4, 1 h intervals, 4 h): 26%; Pt195 in HMWF (albumin-bound) (albumin (mouse serum); pH 7.4, 1 h intervals, 24 h): 75%; Pt195 in LMWF (albumin (mouse serum); pH 7.4, 1 h intervals, 24 h): 25%
3 | CC(=O)[O][Pt-2]12([O]C(=O)NCCOCCOCCOCCOc3ccc(-c4nnc(S(C)(=O)=O)o4)cc3)([NH2+][C@@H]3CCCC[C@H]3[NH2+]1)[O]C(=O)C(=O)[O]2 [PODS-Ox-OAc, (OC-6–34)-Acetato[(1R,2R)-1,2-cyclohexane-1,2-diamino][(2-(2-(2-(2-(4-(5-(methylsulfonyl)-1,3,4-oxadiazol-2-yl)-phenoxy)-ethoxy)-ethoxy)-ethoxy)-ethyl)-carbamato]-oxalato platinum(IV)] | 34 | 66 | 59% and ~60% | 41 | 71 | 29 | 78 | 22 | 83 | 17 | 85 | 15 | 87 | 13 | 70 | 82% and ~80% | 18 | 80% | 20 | 80 | Impact on tumor growth (CT26 colon cancer cells; [8]): slight remission or stable disease; Increase of overall survival compared to solvent control (CT26 colon cancer cells; [8]): ~80%; Tolerability (body weight) (CT26 colon cancer cells; three administrations over 2 weeks (days 4, 8, 12)): well-tolerated; Pt195 in HMWF (albumin-bound) (albumin (mouse serum); pH 7.4, 1 h intervals, 0 h): 30%; Pt195 in LMWF (albumin (mouse serum); pH 7.4, 1 h intervals, 3 h): 20%; Pt195 in HMWF (albumin-bound) (albumin (mouse serum); pH 7.4, 1 h intervals, 4 h): 79%; Pt195 in LMWF (albumin (mouse serum); pH 7.4, 1 h intervals, 4 h): 21%; Pt195 in HMWF (albumin-bound) (albumin (mouse serum); pH 7.4, 1 h intervals, 24 h): 80%; Pt195 in LMWF (albumin (mouse serum); pH 7.4, 1 h intervals, 24 h): 20%

From PMC12261219, “Comparative Evaluation of Thiol- and Amine-Conjugating Moieties for Endogenous Albumin Binding after Intravenous Administration” (ACS Pharmacology & Translational Science, 2025)
